Measurements reported in patent US9932589B2, “EML4-ALK fusion gene” (Astellas Pharma Inc., priority 2006, dated 2018).

Columns and labels:
U-87MG cells = assay: anchorage independent growth on spheroid plate, U-87MG cells expressing full length ALK; assay type: cell-based, human; conditions: siRNA transfected, 3 days; for U-87MG cell growth inhibition rate: spheroid plate
Experimental: (§1) The v1 expressing 3T3 cells (Example 6(1)) and one of the human glioma cells expressing the full length ALK polypeptide and not expressing EML4-ALK fusion polynucleotide endogenously, U-87 MG cells, were seeded to a 96 well spheroid plate (Sumilon Celltight Spheroid 96U, Sumitomo Bakelite Inc.) at 3000 cells per well in a medium containing 10% fetal bovine serum (DMEM for v1 expressing 3T3 cells and RPMI 1640 for U-87MG). […] At the same time, cells were counted before the addition of drugs (Day 0). Then, cells were cultured under 5% CO2, at 37° C. for 3 days, mixed with a reagent for measuring cell number (CellTiter-Glo™ Luminescent Cell Viability Assay; Promega Inc.) stirred for 20 minutes, and the measurements (day 3) were carried out using a luminometer (ML3000 microtiter plate luminometer; Dynatech Laboratories Inc.).

human ALK gene = assay: siRNA inhibition of mRNA expression of ALK gene in U-87MG cells, quantitative PCR; assay type: cell-based; conditions: siRNA 20 nM, 72 hours; for Inhibition rate for ALK gene expression (U-87 MG cells): mRNA
Experimental: (§2) The v1 expressing 3T3 cells and U-87MG cells were seeded to 12 well plates (IWAKI; Asahi techno glass corp.) at 50,000 cells and 150,000 cells, respectively. Four hours later, using a transfection reagent (Lipofectamine RNAiMax; Invitrogen Inc.), siRNA-1 to siRNA-9 were prepared to a final concentration of 20 nM and transfected to cells according to the attached instruction. In addition, as a control no siRNA transfection samples were prepared. After 72 hours, the medium was removed, and total RNA was extracted using an RNA purification kit (RNeasy Mini Kit; QIAGEN Inc.) according to the attached instruction, and cDNA was prepared using a cDNA synthesizing kit (ThermoScript RT-PCR System; Invitrogen Inc.) according to the attached instruction.
(§3) The amount of expressed mRNA of the EML4-ALK fusion polynucleotide v1 in v1 expressing 3T3 cells and the amount of mRNA of the ALK gene in U-87MG cells were quantitated using a quantitative PCR reagent (Power SYBR Green PCR Master Mix; Applied Biosystems Inc.) The PCR reaction was carried out as follows: after 10 minutes incubation at 95° C., 45 cycles of 95° C. for 15 seconds and 60° C. for 60 seconds, and then one cycle of 95° C. for 15 seconds, 60° C. for 15 seconds and 95° C. for 15 seconds to complete the reaction. In addition, to calibrate the amount of expression, the amount of expression of the mouse cyclophilin B gene and the human GAPDH gene was similarly quantitated for v1 expressing 3T3 cells and U-87MG cells, respectively. Analyses were carried out using a sequence detector (ABI PRISM 7900 Sequence Detection System; Perkin-Elmer Applied Biosystems Inc.).
(§4) Oligo nucleotides consisting of the base sequences represented by SEQ ID NO: 44 and 48, SEQ ID NO: 50 and 56, SEQ ID NO: 44 and 48 and SEQ ID NO: 12 and 13 were used as the primer sets that specifically recognize the EML4-ALK fusion polynucleotide v1, the mouse cyclophilin B gene, the human ALK gene and the human GAPDH gene. Also, to obtain a standard curve to calculate the amount of respective mRNA, PCR was performed using human genomic DNA (Clontech) as a template for EML4-ALK fusion polynucleotide v1, human ALK and human GAPDH, and using mouse genomic DNA (Clontech) as a template for mouse cyclophilin B and the aforementioned primer sets under the same condition. Since a primer set corresponding to human ALK polynucleotide exon 29 was used to detect the EML4-ALK fusion polynucleotide v1, the standard curve can be obtained using human genomic DNA. The expression amount of the EML4-ALK fusion polynucleotide v1 and the human ALK gene in respective samples was calibrated with the expression amount of the mouse cyclophilin B gene and the human GAPDH gene to obtain the calibrated expression amount.

[1] = tested on: EML4-ALK fusion polynucleotide v1; assay: siRNA inhibition of mRNA expression of EML4-ALK fusion polynucleotide v1 in v1 expressing 3T3 cells, quantitative PCR; assay type: cell-based, mouse; conditions: siRNA 20 nM, 72 hours; for Inhibition rate for EML4-ALK gene expression (v1 expressing 3T3 cells): mRNA
Experimental: as §2, §3, §4

v1 expressing 3T3 cells = assay: anchorage independent growth on spheroid plate, v1 expressing 3T3 cells; assay type: cell-based, mouse; conditions: siRNA transfected, 3 days; for v1 expressing 3T3 cells growth inhibition rate: spheroid plate
Experimental: as §1

Substance	U-87MG cell growth inhibition rate (U-87MG cells) [%]	Inhibition rate for ALK gene expression (U-87 MG cells) (human ALK gene) [%]	Inhibition rate for EML4-ALK gene expression (v1 expressing 3T3 cells) [1] [%]	v1 expressing 3T3 cells growth inhibition rate (v1 expressing 3T3 cells) [%]	growth of U-87MG cells (in words) (U-87MG cells)	anchorage independent growth of v1 expressing 3T3 cells (in words) (v1 expressing 3T3 cells)	expression inhibitory effect on the human ALK gene (in words) (human ALK gene)	expression inhibitory effect on the EML4-ALK fusion polynucleotide (in words) [1]
siRNA-1: siRNA, sense strand SEQ ID NO: 111, antisense SEQ ID NO: 112; fusion area of EML4-ALK v1 (sense UGGGAAAGGACCUAAAGTGTA; antisense CACTTTAGGUCCUUUCCCAGG; chemistry not given here)	−13	−12	80	–	–	–	–	–
siRNA-2: siRNA, sense strand SEQ ID NO: 113, antisense SEQ ID NO: 114; fusion area of EML4-ALK v1 (sense GGGAAAGGACCUAAAGTGTAC; antisense ACACTTUAGGUCCUUUCCCAG; chemistry not given here)	25	11	66	–	–	–	–	–
siRNA-3: siRNA, sense strand SEQ ID NO: 115, antisense SEQ ID NO: 116; fusion area of EML4-ALK v1 (sense GGACCUAAAGUGUACCGCCGG; antisense GGCGGTACACUUUAGGUCCUU; chemistry not given here)	−21	10	62	–	–	–	–	–
siRNA-4: siRNA, sense strand SEQ ID NO: 117, antisense SEQ ID NO: 118; fusion area of EML4-ALK v1 (sense CCUAAAGUGUACCGCCGGAAG; antisense TCCGGCGGUACACUUUAGGUC; chemistry not given here)	−8	22	86	–	–	–	–	–
siRNA-5: siRNA, sense strand SEQ ID NO: 119, antisense SEQ ID NO: 120; fusion area of EML4-ALK v1 (sense AAAGUGUACCGCCGGAAGCAC; antisense GCTTCCGGCGGUACACUUUAG; chemistry not given here)	−13	−22	76	–	–	–	–	–
siRNA-6: siRNA, sense strand SEQ ID NO: 121, antisense SEQ ID NO: 122; fusion area of EML4-ALK v1 (sense AAGUGUACCGCCGGAAGCACC; antisense TGCTTCCGGCGGUACACUUUA; chemistry not given here)	16	15	69	97	–	–	–	–
siRNA-7: siRNA, sense strand SEQ ID NO: 123, antisense SEQ ID NO: 124; ALK area of EML4-ALK v1 (sense GGCCUGUAUACCGGATAATGA; antisense ATTATCCGGUAUACAGGCCCA; chemistry not given here)	15	–	67	87	did not inhibit the growth of U-87MG cells	–	–	–
siRNA-8: siRNA, sense strand SEQ ID NO: 125, antisense SEQ ID NO: 126; ALK area of EML4-ALK v1 (sense GGCCUGUAUACCGGAUAAUGA; antisense AUUAUCCGGUAUACAGGCCCA; chemistry not given here)	−21	–	70	–	did not inhibit the growth of U-87MG cells	–	–	–
siRNA-9: negative control siRNA, SEQ ID NO: 127 and 128, base sequence not present in mammalian cells (chain 1 CGGCUGCAAUCGATTGATAGC; chain 2 TATCAAUCGAUUGCAGCCGAA; chemistry not given here)	−16	−31	29	−35	did not inhibit the growth	did not inhibit the growth	did not demonstrate strong expression inhibitory effect	did not demonstrate strong expression inhibitory effect
